Laboratory results taken from paper PMC11073699, “Odorant receptors for floral- and plant-derived volatiles in the yellow fever mosquito, Aedes aegypti (Diptera: Culicidae)” (PLOS ONE, 2024).
Where “and” joins values, the source holds several entries; their conditions need not be identical. Identical values can stand only once.

What was measured:
Type in all cases: cell-based
[1] = biological target: T1, AaegOR15 (Aedes aegypti, UniProt A0A6B9QIR2); test: Two-electrode voltage clamp of Xenopus laevis oocytes expressing AaegOR15/Orco (blends, unitary compounds, concentration-response); settings: unitary compounds of Alcohols 2; for Raw data (Responses in nA), compounds of blend Alcohols 2: individual oocytes 1-10 (replicates); for Normalized response, compounds of blend Alcohols 2, Average: average of 10 oocytes, 1-hexanol = 100; for Normalized response, compounds of blend Alcohols 2: individual oocytes 1-10, normalized to the largest response of each oocyte (1-hexanol = 100)
T1 sequence (A0A6B9QIR2 1-390): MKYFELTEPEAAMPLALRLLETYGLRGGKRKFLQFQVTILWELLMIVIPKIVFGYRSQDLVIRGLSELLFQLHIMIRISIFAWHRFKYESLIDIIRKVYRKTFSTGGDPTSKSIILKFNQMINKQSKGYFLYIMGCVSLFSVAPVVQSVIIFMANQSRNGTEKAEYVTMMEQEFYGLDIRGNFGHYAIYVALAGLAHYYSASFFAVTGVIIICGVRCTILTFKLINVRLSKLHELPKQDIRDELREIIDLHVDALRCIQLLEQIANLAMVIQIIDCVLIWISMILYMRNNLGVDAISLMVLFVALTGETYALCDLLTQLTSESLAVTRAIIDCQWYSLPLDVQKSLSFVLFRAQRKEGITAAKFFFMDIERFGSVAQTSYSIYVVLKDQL
T1 sequence (Q178U6 1-478 partner): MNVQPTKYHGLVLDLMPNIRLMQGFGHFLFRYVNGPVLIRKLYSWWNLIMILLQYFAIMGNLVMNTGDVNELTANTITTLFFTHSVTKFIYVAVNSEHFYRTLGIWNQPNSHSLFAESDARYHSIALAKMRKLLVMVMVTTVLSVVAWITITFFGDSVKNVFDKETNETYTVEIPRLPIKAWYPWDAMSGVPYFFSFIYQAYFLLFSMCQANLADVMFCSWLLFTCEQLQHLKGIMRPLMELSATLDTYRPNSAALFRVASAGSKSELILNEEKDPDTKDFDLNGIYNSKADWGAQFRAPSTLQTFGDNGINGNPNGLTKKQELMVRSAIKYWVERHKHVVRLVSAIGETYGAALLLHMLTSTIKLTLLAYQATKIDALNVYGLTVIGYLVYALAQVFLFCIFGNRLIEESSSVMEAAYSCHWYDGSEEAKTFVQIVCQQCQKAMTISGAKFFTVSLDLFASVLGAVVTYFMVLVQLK
Description: (§1) The coding regions of ten AaegOR genes of interest (S3 File) and AaegOrco were synthesized by Twist Bioscience (San Francisco, CA, USA) and cloned into the pENTR plasmid. The Gateway LR directional cloning system (Invitrogen Corp., Carlsbad, CA, USA) was utilized to subclone AaegOR coding regions into the pSP64t-RFA oocyte expression plasmid. Plasmids were purified using the GeneJet Plasmid Miniprep Kit (ThermoFisher Scientific, Waltham, MA, USA). Purified plasmids were sequenced in both directions to confirm coding regions.
(§2) Chemical compounds (S6 File) used in the deorphanization of AaegORs were purchased from Acros Organics (Morris, NJ, USA), Alfa Aesar (Ward Hill, MA, USA), and ThermoFisher Scientific (Waltham, MA, USA) at the highest purity available. Compounds were stored as 1M stocks in 100% DMSO. Serial dilutions of each compound were prepared in 10% DMSO and blended by chemical class.
(§3) pSP64t-RFA: AaegOR clones were linearized using Xbal, and cRNAs were synthesized using the mMESSAGE mMACHINE ® SP6 kit (Life Technologies, Carlsbad, CA, USA). Xenopus laevis stage V-VII oocytes purchased from Xenopus1 (Dexter, MI, USA) were stored at 18°C in Incubation medium (ND96 96 with 5% dialyzed horse serum, 50μg/mL gentamycin, 100μg/mL streptomycin, 100μg/mL penicillin, and 550μg/mL sodium pyruvate). 30nL of cRNA was injected into multiple oocytes using a microinjection syringe pump (World Precision Instruments, Sarasota, FL, USA) maintained at 18°C for 48–72 hrs. Odorant blends were perfused across individual oocytes for 10–15 seconds, held at a resting membrane potential of -80 mV using an OC-725C oocyte clamp (Warner Instruments, LLC, Hamden, CT, USA). Induced currents were measured indirectly using the two-electrode voltage clamp technique (TEVC). Following each stimulus, currents were allowed to return to baseline before further stimulation. Data was captured using the Digidata 1550 B digitizer and PClamp10 software (Molecular Devices, San Jose, CA, USA). Concentration-response curves were generated by perfusing unitary odorants over oocytes at increasing concentrations from [10^-3M] to [10^-9M]. Data were analyzed using GraphPad Prism 8 (GraphPad Software Inc., La Jolla, CA, USA). At least two biological replicates were conducted at each concentration and for each compound. Data for at least seven oocytes responding to each compound was analyzed (S7 File).

[2] = biological target: T2, AaegOR28 (Aedes aegypti, UniProt Q0IGE1); test: Two-electrode voltage clamp of Xenopus laevis oocytes expressing AaegOR28/Orco (blends, unitary compounds, concentration-response); settings: for Raw Data (Responses in nA), Alcohols 3 unitary compounds / Normalized response, Average, Alcohols 3 unitary compounds / Normalized response, Alcohols 3 unitary compounds / Raw Data (Responses in nA), concentration-response: AaegOR28; for Raw Data (Responses in nA), Alcohols 3 unitary compounds / Normalized response, Average, Alcohols 3 unitary compounds / Normalized response, Alcohols 3 unitary compounds: compounds of blend Alcohols 3; for Raw Data (Responses in nA), Alcohols 3 unitary compounds: individual oocytes 1-10; for Normalized response, Average, Alcohols 3 unitary compounds: average of 10 oocytes; for Normalized response, Alcohols 3 unitary compounds: individual oocytes 1-10, normalized to largest response of each oocyte; for Raw Data (Responses in nA), concentration-response: individual oocytes 1-8
T2 sequence (Q0IGE1 1-394): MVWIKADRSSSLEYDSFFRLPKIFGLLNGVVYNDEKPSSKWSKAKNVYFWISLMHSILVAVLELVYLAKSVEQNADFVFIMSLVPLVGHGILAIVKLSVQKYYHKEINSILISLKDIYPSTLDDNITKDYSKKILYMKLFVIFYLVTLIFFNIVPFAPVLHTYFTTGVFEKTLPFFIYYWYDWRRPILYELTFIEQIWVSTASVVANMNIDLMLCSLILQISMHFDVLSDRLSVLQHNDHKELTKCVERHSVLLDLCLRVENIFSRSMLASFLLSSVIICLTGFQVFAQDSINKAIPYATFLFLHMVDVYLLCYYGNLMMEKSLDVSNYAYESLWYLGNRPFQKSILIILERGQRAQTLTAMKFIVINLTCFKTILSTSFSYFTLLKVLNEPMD
T2 sequence (Q178U6 1-478 partner): T1 sequence (Q178U6 1-478 partner)
Description: as §1, §2, §3

[3] = biological target: T3, AaegOR13 (Aedes aegypti, UniProt Q16Z13); test: Two-electrode voltage clamp of Xenopus laevis oocytes expressing AaegOR13/Orco (blends, unitary compounds, concentration-response); settings: unitary compounds
T3 sequence (Q16Z13 1-389): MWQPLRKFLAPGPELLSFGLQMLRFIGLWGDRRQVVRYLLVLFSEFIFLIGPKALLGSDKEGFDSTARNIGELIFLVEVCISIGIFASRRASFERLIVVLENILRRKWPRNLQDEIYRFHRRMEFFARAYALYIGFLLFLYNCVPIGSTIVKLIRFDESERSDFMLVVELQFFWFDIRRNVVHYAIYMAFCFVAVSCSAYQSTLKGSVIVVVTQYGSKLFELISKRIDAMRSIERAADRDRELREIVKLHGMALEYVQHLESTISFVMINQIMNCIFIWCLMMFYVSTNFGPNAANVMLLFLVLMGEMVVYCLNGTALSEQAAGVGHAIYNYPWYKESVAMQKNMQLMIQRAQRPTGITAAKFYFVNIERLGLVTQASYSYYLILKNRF
T3 sequence (Q178U6 1-478 partner): T1 sequence (Q178U6 1-478 partner)
Description: as §1, §2, §3

[4] = biological target: T4, AaegOR55 (Aedes aegypti, UniProt Q16T12); test: Two-electrode voltage clamp of Xenopus laevis oocytes expressing AaegOR55/Orco (blends, unitary compounds, concentration-response); settings: AaegOR55, compounds of blend Indoles 1
T4 sequence (Q16T12 10-392): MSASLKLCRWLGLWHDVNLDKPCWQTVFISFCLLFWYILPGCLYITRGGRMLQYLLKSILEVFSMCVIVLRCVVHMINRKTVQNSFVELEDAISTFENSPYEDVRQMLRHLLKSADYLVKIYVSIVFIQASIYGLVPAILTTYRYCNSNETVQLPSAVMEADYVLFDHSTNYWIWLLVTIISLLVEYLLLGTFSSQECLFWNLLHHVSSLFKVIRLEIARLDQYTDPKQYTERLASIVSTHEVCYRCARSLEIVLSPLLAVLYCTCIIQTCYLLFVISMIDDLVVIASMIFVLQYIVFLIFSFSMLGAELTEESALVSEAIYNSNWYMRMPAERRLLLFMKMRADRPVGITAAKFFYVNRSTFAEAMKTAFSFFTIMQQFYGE
T4 sequence (Q178U6 1-478 partner): T1 sequence (Q178U6 1-478 partner)
Description: as §1, §2, §3

Compound | Raw data (Responses in nA), compounds of blend Alcohols 2 [1] | Raw Data (Responses in nA), Alcohols 3 unitary compounds [2] | Raw data (Responses in nA), unitary compounds of Indoles 1, Alcohols 1, Alcohols 3 ([3]; individual oocytes 1-7) | Normalized response, Average, Alcohols 3 unitary compounds [2] | Normalized response, Alcohols 3 unitary compounds [2] | further results
C=CC1(C)CCC(C(C)(C)O)O1 (stereo not shown) [Linalool Oxide] | 0.0 nA (6×) and 10.0 nA (2×) and 5.0 nA (2×) | 0 nA | – | – | – | –
C=CCc1ccc(O)c(OC)c1 [Eugenol] | 0.0 nA (2×) and 5.0 nA and 10.0 nA (3×) and 15.0 nA (2×) and 30.0 nA and 20.0 nA | 0 nA | 20.0 nA and 430.0 nA and 105.0 nA and 220.0 nA and 160.0 nA (2×) and 100.0 nA | – | – | –
C=CC(C)(O)CC/C=C(\C)CC/C=C(\C)CCC=C(C)C (stereo not shown) [Geranyl Linalool] | 0.0 nA (7×) and 10.0 nA (3×) | 0 nA | 0.0 nA | 0.0 | 0.0 (9×) and 0 | Normalized response, unitary compounds, Average ([3]; average of oocytes 1-7): 0.0; Normalized response, unitary compounds of Indoles 1, Alcohols 1, Alcohols 3 ([3]; normalized per oocyte, individual oocytes 1-7): 0.0; Normalized response, compounds of blend Alcohols 2, Average [1]: 0.4; Normalized response, compounds of blend Alcohols 2 [1]: 0.0 (7×) and 1.3 and 0.9 and 1.7
CC(C)C12CCC(C)(CC1)O2 [1,4-Cineole] | 0.0 nA (6×) and 10.0 nA (4×) | 0 nA | 0.0 nA | – | – | –
C=C[C@@](C)(O)CCC=C(C)C [(S)-(+)-linalool] | – | 10 nA (2×) and 5 nA (5×) and 0 nA and 15 nA (2×) | – | 19.1 | 33.3 and 14.3 and 25.0 and 0.0 and 30.0 and 16.7 (2×) and 12.5 and 22.2 and 20 | –
C=C[C@](C)(O)CCC=C(C)C [(R)-(-)-linalool] | 0.0 nA (3×) and 10.0 nA (2×) and 20.0 nA and 25.0 nA and 40.0 nA (2×) and 15.0 nA | 10 nA (5×) and 5 nA (4×) and 20 nA | – | 25.1 | 33.3 and 28.6 and 50.0 and 25.0 and 20.0 and 16.7 and 12.5 and 22.2 (2×) and 20 | Normalized response, compounds of blend Alcohols 2, Average [1]: 2.4; Normalized response, compounds of blend Alcohols 2 [1]: 0.0 (3×) and 1.4 and 2.6 and 3.7 (2×) and 1.7 and 5.4 and 5.5
COC(=O)c1c[nH]c2ccccc12 [methylindole-3-carboxylate] | – | – | – | – | – | Normalized response, Average, Indoles 1 unitary compounds ([4]; average of 7 oocytes): 5.2; Raw Data (Responses in nA), Indoles 1 unitary compounds ([4]; individual oocytes (Oocyte 1-7)): 20.0 nA and 10.0 nA (5×) and 15.0 nA; Normalized response, Indoles 1 unitary compounds ([4]; individual oocytes (Oocyte 1-7), normalized to the strongest compound per oocyte): 8.5 and 7.1 and 4.0 and 3.3 and 5.4 and 4.9 and 3.4
isoeugenol | 0.0 nA (5×) and 10.0 nA (2×) and 20.0 nA (3×) | 0 nA | 0.0 nA and 110.0 nA and 25.0 nA and 40.0 nA and 35.0 nA (2×) and 15.0 nA | – | – | –
CCC(C)(O)CCCC(C)C (stereo not shown) [tetrahydrolinalool, Tetrahydrolinalool] | 0.0 nA (3×) and 20.0 nA (4×) and 40.0 nA and 10.0 nA and 5.0 nA | 30 nA (2×) and 25 nA and 35 nA and 20 nA (2×) and 50 nA and 40 nA and 45 nA and 90 nA | 0.0 nA | – | – | EC50 ([2]; AaegOR28/Orco expressing oocytes, TEVC, concentration-response of normalized current): 44.1 µM; Raw Data (Responses in nA), concentration-response ([2]; concentration 1e-6): 5 nA (4×) and 0 nA (2×) and 10 nA and 20 nA; Raw Data (Responses in nA), concentration-response ([2]; concentration 5e-6): 30 nA and 10 nA (2×) and 20 nA (4×) and 50 nA; Raw Data (Responses in nA), concentration-response ([2]; concentration 1e-5): 40 nA (3×) and 30 nA (2×) and 50 nA and 45 nA and 95 nA; Raw Data (Responses in nA), concentration-response ([2]; concentration 5e-5): 150 nA and 200 nA and 70 nA and 230 nA and 220 nA and 90 nA and 180 nA and 260 nA; Raw Data (Responses in nA), concentration-response ([2]; concentration 0.0001): 290 nA and 320 nA and 140 nA and 330 nA and 400 nA and 100 nA and 220 nA and 310 nA; Raw Data (Responses in nA), concentration-response ([2]; concentration 0.0005): 380 nA and 530 nA and 180 nA and 400 nA and 480 nA and 105 nA and 230 nA and 340 nA; Raw Data (Responses in nA), concentration-response ([2]; concentration 0.001): 400 nA and 440 nA (2×) and 200 nA and 500 nA and 110 nA and 350 nA and 300 nA
CC12CCC(CC1)C(C)(C)O2 [1,8-cineole] | 0.0 nA (3×) and 5.0 nA (3×) and 10.0 nA (4×) | 5 nA and 0 nA (9×) | 0.0 nA | – | – | –
